{"source": "patent US20110165173A1", "about": "“THERAPEUTIC AGENT AND DETECTION REAGENT FOR ARTERIOSCLEROTIC DISEASE WHICH TARGETS FOR SALUSIN” (PROTEINEXPRESS CO., LTD., priority 2007, published 2011)", "key": {"[1]": {"test_system": "human monocyte-derived macrophages", "assay": "Cholesterol esterification assay: foaming of human monocyte-derived macrophages caused by AcLDL", "format": "cell-based", "conditions": "0.6 nM; 5 μg/mL AcLDL added on Day 7", "protocol": "Cholesterol esterification assay was employed as a method for assaying foaming of macrophages [Goldstein J L et al., Methods Enzymol. 1983; 98: 241-260]. Macrophages cause acetylated LDL (AcLDL) to be incorporated into cells via scavenger receptors so as to result in lysosome degradation. Free cholesterol produced in a lysosome is transferred to ACAT and converted into cholesterol ester as a result of ACAT reaction. If [^3H]oleate is added to a medium, [^3H]oleate is incorporated into cells and converted into [^3H]oleoyl-CoA by acyl CoA synthase. ACAT produces cholesterol [^3H]oleate with the use of as substrates, AcLDL-derived free cholesterol and [^3H]oleoyl-CoA obtained as above. The radioactivity of cholesterol [^3H]oleate accumulated in cells can serve as a sensitive indicator for cholesterol ester accumulation (FIG. 7).\nLDL (d=1.019-1.063) was purified from human blood plasma by sequential flotation ultracentrifugation [Schumaker VN et al., Methds Enzymol. 1986; 128: 155-170]. […] The volume of the obtained blood plasma fraction from which chylomicron and VLDL had been removed was measured with a volumetric flask. […]\nEquivalent volumes of LDL (protein: 30 mg) (15 mL if 2.0 mg protein/mL) and saturated sodium acetate were mixed together. […] At this time, pH was monitored with a pH meter with the dropwise addition of 5 N NaOH thereto such that the pH could be maintained at more than 6.5. […]"}, "[2]": {"biological_target": "T1, mouse mas-like G protein-coupled receptor Al (mMrgA 1) (Mus musculus, UniProt Q91WW5)", "T1 construct": "host or cells: HEK293T cells (heterologous expression, reported by Wang et al., Eur J Pharmacol 2006)", "T1 sequence (Q91WW5 1-304)": "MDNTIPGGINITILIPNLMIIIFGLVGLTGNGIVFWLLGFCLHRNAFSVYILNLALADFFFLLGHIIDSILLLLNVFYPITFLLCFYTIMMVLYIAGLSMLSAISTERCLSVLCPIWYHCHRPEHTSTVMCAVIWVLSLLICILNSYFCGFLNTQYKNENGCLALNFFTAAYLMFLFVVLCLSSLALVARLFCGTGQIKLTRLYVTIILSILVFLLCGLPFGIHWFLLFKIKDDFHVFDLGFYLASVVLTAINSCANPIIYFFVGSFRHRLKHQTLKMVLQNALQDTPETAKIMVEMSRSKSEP", "conditions": "HEK293T cells expressing mMrgA1; Wang Z et al., Eur J Pharmacol. 2006; cited from earlier work"}}, "data": [{"substance": "salusin-α: peptide (SEQ ID NO: 1) comprising 28 amino acid residues, generated by processing from preprosalusin (SGALPPAPAAPRPALRAQRAGPAGPGAK; listed as Homo sapiens)", "values": [{"measurement": "accumulation of cholesterol [3H]oleate caused by AcLDL, percent of loaded control cells", "setting": "[1]", "result": 50, "unit": "%"}, {"measurement": "ligand for mMrgA1", "setting": "[2]", "result": "does not serve as a ligand"}]}, {"substance": "salusin-β: peptide (SEQ ID NO: 3) comprising 20 amino acid residues, generated by processing from preprosalusin (AIFIFIRWLLKLGHHGRAPP; listed as Homo sapiens) [reference compound]", "values": [{"measurement": "accumulation of cholesterol [3H]oleate caused by AcLDL relative to control cells", "setting": "[1]", "result": 1.6, "unit": "times"}, {"measurement": "ligand for mMrgA1", "setting": "[2]", "result": "regarded as a ligand"}]}]}
